Source: patent publication US20020068351A1, “Human brain phosphodiesterase” (SmithKline Beecham Corporation, priority 1994, published 2002)
Entries after “also recorded” stand apart in the source; their conditions may differ.

Assays:
[1] = target: hPDE IVB (Homo sapiens, UniProt Q07343); assay: PDE assay: cAMP hydrolysis by recombinant hPDE IVB in yeast lysate supernatant
Experimental: PDE Assays and Inhibitor Studies—PDE activity was determined in 100,000×g supernatant fractions of yeast cell lysates. […] For studies in which the IC50s of various inhibitors were determined, compounds were present in the reaction mixture at concentrations that varied over three orders of magnitude. Reactions were conducted at 30° C. for 30 min.
Appropriate corrections were made for the changes in specific activity of the substrate. […] Statistical comparisons between one-site and two-site fits were conducted via F test.

[2] = system: wild-type yeast cells; assay: Yeast control: killing of wild-type cells
Experimental: (§1) For heat shock, cells are replicated from the master plate onto two plates each containing the same medium as describe above, one of which is preheated to 55° C. for 1 hour. Cells transferred to the preheated plate are incubated at 55° C. for 5 minutes and then shifted to 30° C. For monitoring growth on acetate, the master plate is replicated to a plate containing the same medium except 2% potassium acetate instead of glucose. Growth is scored after five days at 5 days at 30° C.

[3] = system: PDE-deficient mutant cells expressing the human PDE IV; assay: Yeast growth arrest assay in PDE-deficient cells expressing human PDE IV
Experimental: as §1

hPDE IVB, sequence (Q07343 1-564 isoform Q07343-2): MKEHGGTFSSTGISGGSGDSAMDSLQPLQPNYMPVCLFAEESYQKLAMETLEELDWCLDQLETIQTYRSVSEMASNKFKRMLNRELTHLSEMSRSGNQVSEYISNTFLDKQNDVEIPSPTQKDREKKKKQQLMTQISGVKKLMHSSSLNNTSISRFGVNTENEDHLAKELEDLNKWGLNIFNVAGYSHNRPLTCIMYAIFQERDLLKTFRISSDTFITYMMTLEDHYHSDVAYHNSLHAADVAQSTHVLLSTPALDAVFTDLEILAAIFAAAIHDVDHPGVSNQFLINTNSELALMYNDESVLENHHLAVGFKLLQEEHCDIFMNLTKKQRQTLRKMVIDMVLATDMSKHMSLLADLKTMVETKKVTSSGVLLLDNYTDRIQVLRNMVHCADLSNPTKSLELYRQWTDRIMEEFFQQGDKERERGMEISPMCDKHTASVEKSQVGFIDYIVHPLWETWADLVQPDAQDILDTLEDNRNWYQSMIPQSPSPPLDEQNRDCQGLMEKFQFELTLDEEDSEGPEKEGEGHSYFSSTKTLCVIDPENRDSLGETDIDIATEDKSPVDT

Compound: Nc1nc2c(ncn2[C@@H]2O[C@@H]3COP(=O)(O)O[C@H]3[C@H]2O)c(=O)[nH]1 [cGMP]
- hydrolysis of cGMP as substrate ([1]; hPDE IVB, substrate concentrations as great as 10 mM): very poor activity; also recorded: No detectable hydrolysis
- Km ([1]; substrate of hPDE IVB): > 10 mM

Compound: COc1ccc(C2CNC(=O)C2)cc1OC1CCCC1 (stereo not drawn) [rolipram]
- killing effect [2]: no killing effect
- cytotoxicity ([3]; under growth arrest conditions): cytotoxic
- killing effect ([3]; under normal growth conditions): no killing effect

Compound: CN/C(=N\c1ccc(C2=NNC(=O)CC2C)cc1)NC#N (stereo not drawn) [siquazodan, siguazodan]
- IC50 [1]: > 30 µM
